In US12565515B2, “1,2,4-oxadiazole compounds as inhibitors of CD47 signalling pathways” (AURIGENE ONCOLOGY LIMITED, priority 2018, dated 2026):

Test system: luciferase expressing Raji cells
Experiment: Luciferase based phagocytosis assay
Format: cell-based
Settings: human monocyte-derived macrophages, luminescence, read-out: % normalized phagocytosis (at 10 μM)
Experimental: (§1) DPBS (Gibco), RPMI 1640 WITH HEPES AND L-GLN-500 ML (Lonza), Recombinant Human M-CSF (R& D systems), CD47 Monoclonal Antibody (B6H12), Functional Grade antibody (Ebioscience), Mouse IgG1 kappa Isotype Control, Functional Grade (Ebioscience), Vacutainer (multiple sample luer adapter) (BD), Vacutainer (sodium heparin (NH) 158USP units, Blood collection tubes (BD), Histopaque (density—1.077 gm/ml) (SIGMA 1077), Trypan Blue solution (SIGMA-T8154), Hemacytometer (Bright line-SIGMA Z359629), Scalp vein infusion set (JMS), Cell Dissociation buffer (Gibco), 48-well sterile flat bottom plates (Corning), Luciferase expressing Raji cells (Generated in house by trasfection of luciferase gene in Raji cells) Luminometer, Hygromycin B (Invitrogen), Bright Glo luciferase assay system (Promega), 96 well plate, polystyrene, high band, white flat bottom wells (Sigma CLS3912), APC anti-mouse/human CD11b Antibody (Biolegend), H929 cells, CFSE (Ebioscience), Fetal Bovine Serum (Gibco Cat #: 10437028), Round-Bottom FACs Tubes (BD), Flowcytometer BD FACS Verse, 96 well plates, ultra-low attachment (Corning).
In vitro phagocytosis assay was performed to evaluate the ability of test item to enhance the phagocytic activity of macrophages. Monocytes were isolated from blood of healthy donor and cultured for 6-8 days using 10% RPMI (Roswell Park Memorial Institute) media and recombinant human M-CSF to differentiate into macrophages. Media was changed every alternate day. After differentiation, adherent macrophages were collected by gentle scraping and cultured in 10% RPMI overnight at a density of 0.1 million per well in 48 well tissue culture plate. Simultaneously, luciferase expressing Raji cells were cultured in 10% RPMI media with 100 μg/mL of hygromycin B in tissue culture flask. On the day of phagocytosis, macrophages were serum starved for 2 hours. 0.4 million luciferase expressing Raji cells per well were incubated with anti human CD47 purified B6H12 or Mouse IgG1 K Isotype Control antibody or various concentrations of test item in serum free media for 30 min at 37° C. and added into respective well of the 48 well plate seeded with macrophages. After 2 hours, cells were washed twice with PBS and 100 μL of serum free RPMI was added to each well. Additionally, 50 μL Bright Glow reagent was added to each well followed by mixing of cells and incubated for 5 min in dark. Luminescence reading was taken using plate reader after transferring the content of each well to white plate. Intensity of luminescence indicated the extent of phagocytosis. Each experimental condition was carried out in duplicate.

Row | Compound | activation at 10 µM
1 | N=C(N)NCCC[C@H](N)c1noc([C@H](CCC(=O)O)NC(=O)N[C@@H](Cc2ccccc2)C(=O)O)n1 [Compound 7, (S)-4-(3-((S)-1-amino-4-guanidinobutyl)-1,2,4-oxadiazol-5-yl)-4-(3-((S)-1-carboxy-2-phenylethyl)ureido)butanoic acid] | 58%
2 | NCCCC[C@H](N)c1noc([C@H](CCC(=O)O)NC(=O)N[C@@H](Cc2cnc[nH]2)C(=O)O)n1 [Compound 13] | 49%
3 | N=C(N)NCCC[C@H](NC(=O)N[C@@H](CCC(=O)O)c1nc([C@@H]2CCCN2)no1)C(=O)O [Compound 8] | 20%
4 | N=C(N)NCCC[C@H](NC(=O)N1CCCC1C(=O)O)c1nc([C@@H](N)CCC(=O)O)no1 (stereo partly drawn) [Compound 3] | 42%
5 | N=C(N)NCCC[C@H](NC(=O)N[C@@H](CCC(N)=O)c1nc([C@@H](N)CC(N)=O)no1)C(=O)O [Compound 9] | 38%
6 | NCc1noc([C@H](Cc2cnc[nH]2)NC(=O)N[C@@H](Cc2ccccc2)C(=O)O)n1 [Compound 14] | 47%
7 | N=C(N)NCCC[C@H](NC(=O)N[C@@H](CCC(N)=O)C(=O)O)c1nc([C@@H](N)CCC(N)=O)no1 [Compound 12] | 44%
8 | NCCCC[C@H](N)c1noc([C@H](CCC(N)=O)NC(=O)N2CCC[C@H]2C(=O)O)n1 [Compound 1, (((S)-4-amino-1-(3-((S)-1,5-diaminopentyl)-1,2,4-oxadiazol-5-yl)-4-oxobutyl)carbamoyl)-L-proline] | 39%

Test system: H929 cells
Experiment: FACS based phagocytosis assay
Format: cell-based
Settings: NCI-H929, human macrophages, CFSE stained H929 cells, flow cytometry, normalized to positive control B6H12
Experimental: as §1
Monocytes were isolated from blood of healthy donor and cultured for 6-8 days using 10% RPMI (Roswell Park Memorial Institute) media and recombinant human M-CSF to differentiate into macrophages. Media was changed every alternate day. Simultaneously, H929 cells were cultured in 10% RPMI media with 50 μg/mL of betamercaptoethanol in tissue culture flask. On the day of phagocytosis adherent macrophages were serum starved for 2 hours in RPMI media. Simultaneously H929 cells were stained with 0.3 μM CFSE stain. After washing, 0.2 million CFSE stained H929 cells were incubated with anti-human CD47 or Mouse IgG1 K Isotype Control antibody or various conc of test item in serum free media for 30 min at 37° C. After 2 hours of serum starvation macrophages were dissociated with cell dissociation buffer and collected by gentle scraping and added at conc of 0.05 million per well into respective wells of the ultra-low attachment 96 well plate seeded with H929 cells. Phagocytosis was allowed for 2 hours. After 2 hours, cells were washed with PBS and stained with 1 μL of anti-human CD11b-APC antibody prepared in 100 μL of PBS for 30 min in 4° C. in dark. Cells were further washed and fixed in 100 μL of fixation buffer until acquired by Flow cytometry. The extent of phagocytosis of H929 cells by human macrophages was measured by acquiring the samples by Flow cytometry. Samples acquired by Flow cytometry were analysed by using FlowJo software. Each experimental condition was carried out in duplicate. Cells positive for FITC (CFSE) and CD11b-APC were considered as phagocytosed macrophages. Raw data of % phagocytosis by macrophages were obtained in the form of excel sheet from FlowJo. % phagocytosis from isotype control (background phagocytosis) was subtracted from % phagocytosis of macrophages treated with compound as well as other controls to get corrected phagocytosis values. Corrected phagocytosis values of compound treated samples were normalized with phagocytosis of positive control (B6H12) using the formula: % normalized phagocytosis=[(corrected % phagocytosis of compound)/(corrected phagocytosis of B6H12)*100]

Row | Compound | activation at 10 µM
9 | CCC(C)[C@H](NC(=O)N[C@@H](CCCNC(=N)N)c1nc([C@@H](N)CCC(=O)O)no1)C(=O)O (stereo partly drawn) [Compound 37] | 17%
10 | N=C(N)NCCC[C@H](NC(=O)N[C@@H](Cc1c[nH]c2ccccc12)C(=O)O)c1nc([C@@H](N)CCC(=O)O)no1 [Compound 46] | 30%
11 | N=C(N)NCCC[C@H](NC(=O)N1CCCC1C(=O)O)c1nc([C@@H](N)CC(=O)O)no1 (stereo partly drawn) [Compound 23] | 60%
12 | N[C@@H](CCC(=O)O)c1noc(CNC(=O)N[C@@H](Cc2cnc[nH]2)C(=O)O)n1 [Compound 22] | 33%
13 | N=C(N)NCCC[C@H](N)c1noc([C@H](CCC(=O)O)NC(=O)N[C@@H](Cc2ccccc2)C(=O)O)n1 [Compound 7, (S)-4-(3-((S)-1-amino-4-guanidinobutyl)-1,2,4-oxadiazol-5-yl)-4-(3-((S)-1-carboxy-2-phenylethyl)ureido)butanoic acid] | 38%
14 | NCCCC[C@H](N)c1noc([C@H](CCC(=O)O)NC(=O)N[C@@H](Cc2cnc[nH]2)C(=O)O)n1 [Compound 13] | 29%
15 | N[C@@H](Cc1cnc[nH]1)c1noc([C@H](Cc2ccccc2)NC(=O)N2CCCC2C(=O)O)n1 (stereo partly drawn) [Compound 19] | 52%
16 | N=C(N)NCCC[C@H](NC(=O)NCC(=O)O)c1nc([C@@H](N)CCC(=O)O)no1 [Compound 48] | 29%
17 | NCCCC[C@H](NC(=O)NCc1nc([C@@H](N)CCC(N)=O)no1)C(=O)O [Compound 41] | 31%
18 | CCC(C)[C@H](N)c1noc([C@H](CCCNC(=N)N)NC(=O)N2CCCC2C(=O)O)n1 (stereo partly drawn) [Compound 29] | 26%
19 | N=C(N)NCCC[C@H](NC(=O)N[C@@H](CCC(=O)O)c1nc([C@@H]2CCCN2)no1)C(=O)O [Compound 8] | 40%
20 | N=C(N)NCCC[C@H](NC(=O)N[C@@H](CC(=O)O)C(=O)O)c1nc([C@@H](N)CCC(=O)O)no1 [Compound 47] | 18%
21 | COC(=O)CC[C@H](N)c1noc(C(CCCNC(=N)N)NC(=O)N2CCCC2C(=O)OC)n1 (stereo partly drawn) [Compound 39] | 23%
22 | N[C@@H](CCC(=O)O)c1noc(CNC(=O)N2CCCC2C(=O)O)n1 (stereo partly drawn) [Compound 17] | 33%
23 | N=C(N)NCCC[C@H](N)c1noc([C@H](CCC(=O)O)NC(=O)N2CCCC2C(=O)O)n1 (stereo partly drawn) [Compound 2] | 37%
24 | N[C@@H](Cc1ccccc1)c1noc(CNC(=O)N2CCCC2C(=O)O)n1 (stereo partly drawn) [Compound 16] | 27%
25 | NCCCC[C@H](N)c1noc([C@H](CCC(=O)O)NC(=O)NCC(=O)O)n1 [Compound 15] | 62%

Row | Compound | activation at 10 µM
26 | N=C(N)NCCC[C@H](NC(=O)N1CCCC1C(=O)O)c1nc([C@@H](N)Cc2c[nH]c3ccccc23)no1 (stereo partly drawn) [Compound 30] | 23%
27 | NC(=O)CC[C@H](N)c1noc(CNC(=O)N[C@@H](CCC(=O)O)C(=O)O)n1 [Compound 50] | 26%
28 | N[C@@H](CCC(=O)O)c1noc([C@H](CCC(=O)O)NC(=O)N2CCCC2C(=O)O)n1 (stereo partly drawn) [Compound 32] | 46%
29 | N=C(N)NCCC[C@H](NC(=O)N1CCCC1C(=O)O)c1nc([C@@H](N)CCC(=O)O)no1 (stereo partly drawn) [Compound 3] | 73%
30 | N=C(N)NCCC[C@H](NC(=O)N1CCCC1C(=O)O)c1nc([C@@H](N)CCC(N)=O)no1 (stereo partly drawn) [Compound 5] | 56%
31 | NCc1noc([C@H](Cc2cnc[nH]2)NC(=O)N[C@@H](Cc2ccccc2)C(=O)O)n1 [Compound 14] | 26%
32 | N=C(N)NCCC[C@H](NC(=O)N[C@@H](CCC(N)=O)C(=O)O)c1nc([C@@H](N)CCC(N)=O)no1 [Compound 12] | 20%
33 | NC(=O)CC[C@H](N)c1noc([C@H](CCC(=O)O)NC(=O)N2CCCC2C(=O)O)n1 (stereo partly drawn) [Compound 21] | 13%
34 | N[C@@H](CCC(=O)O)c1noc([C@H](Cc2ccccc2)NC(=O)N2CCC[C@H]2C(=O)O)n1 [Compound 33] | 31%
35 | N=C(N)NCCC[C@H](NC(=O)N1CCCC1C(=O)O)c1nc(CN)no1 (stereo partly drawn) [Compound 31] | 58%
36 | N=C(N)NCCC[C@H](NC(=O)N[C@@H](Cc1ccccc1)C(=O)O)c1nc([C@@H](N)CCC(N)=O)no1 [Compound 10] | 28%
37 | COC(=O)C1CCCN1C(=O)NC(CCCNC(=N)N)c1nc([C@@H](N)CCC(=O)O)no1 (stereo partly drawn) [Compound 40] | 27%
38 | N=C(N)NCCC[C@H](NC(=O)N[C@@H](CCC(=O)O)C(=O)O)c1nc([C@@H](N)CCC(=O)O)no1 [Compound 51] | 24%
39 | NCCCC[C@H](NC(=O)N[C@@H](CCC(N)=O)c1nc([C@@H](N)CC(N)=O)no1)C(=O)O [Compound 43] | 43%
40 | N[C@@H](CCC(=O)O)c1noc([C@H](CO)NC(=O)N2CCCC2C(=O)O)n1 (stereo partly drawn) [Compound 35] | 35%
41 | NCCCC[C@H](N)c1noc([C@H](CCC(N)=O)NC(=O)N2CCC[C@H]2C(=O)O)n1 [Compound 1, (((S)-4-amino-1-(3-((S)-1,5-diaminopentyl)-1,2,4-oxadiazol-5-yl)-4-oxobutyl)carbamoyl)-L-proline] | 45%
42 | CC(C)C[C@H](NC(=O)N[C@@H](CCCNC(=N)N)c1nc([C@@H](N)CCC(=O)O)no1)C(=O)O [Compound 44] | 20%
